ChEMBL document CHEMBL4177558, “Rapid, microwave-accelerated synthesis and anti-osteoporosis activities evaluation of Morusin scaffolds and Morusignin L scaffolds” (2017)
Activity calls are given as the source filed them. No cut-off for these calls is given here.

Legend:
[1] = system: MC3T3-E1; assay: Induction of osteoblast proliferation in mouse MC3T3-E1 cells assessed a growth rate relative to untreated control at 10^-7 mol/L after 48 hrs by MTT assay; format: functional
[2] = system: MC3T3-E1; assay: Induction of osteoblast proliferation in mouse MC3T3-E1 cells assessed a growth rate relative to untreated control at 10^-8 mol/L after 48 hrs by MTT assay; format: functional
[3] = system: MC3T3-E1; assay: Induction of osteoblast proliferation in mouse MC3T3-E1 cells assessed as growth rate relative to untreated control at 10^-5 mol/L after 48 hrs by MTT assay; format: functional; details: MC3T3-E1, 48 h, read-out: Activity
[4] = system: MC3T3-E1; assay: Induction of osteoblast proliferation in mouse MC3T3-E1 cells assessed a growth rate relative to untreated control at 10^-6 mol/L after 48 hrs by MTT assay; format: functional
[5] = system: Osteoclast; assay: Anti-osteoporotic activity assessed as osteoclast differentiation in rabbit bone marrow-derived osteoclast at 1 x 10^-5 mol/L after 8 days by TRAP staining-based phase-contrast microscopic method; format: functional, cell-based; details: Oryctolagus cuniculus
[6] = system: Bone; assay: Anti-osteoporotic activity in bovine bone assessed as bone resorption of osteoclast at 1 x 10^-5 mol/L after 8 days by toluidine blue staining-based method; format: functional, tissue-based; details: Bos taurus; Bone element
[7] = system: Osteoclast; assay: Inhibition of New Zealand white rabbit bone marrow-derived osteoclast differentiation assessed as reduction in TRAP activity in at 1 x 10^-6 to 1 x 10^-8 mol/L measured on day 8 post dose by StrACP assay; format: functional, cell-based; details: Oryctolagus cuniculus
[8] = system: Osteoclast; assay: Inhibition of New Zealand white rabbit bone marrow-derived osteoclast differentiation assessed as reduction in TRAP positive cells at 1 x 10^-5 to 1 x 10^-8 mol/L measured on day 8 post dose by leukocyte acid phosphatase-staining based phase contrast microscopy; format: functional, cell-based; details: Oryctolagus cuniculus
[9] = system: Osteoclast; assay: Inhibition of New Zealand white rabbit bone marrow-derived osteoclast differentiation assessed as reduction in TRAP activity in at 1 x 10^-5 mol/L measured on day 8 post dose by StrACP assay; format: functional, cell-based; details: Oryctolagus cuniculus
[10] = system: Bone; assay: Anti-osteoporotic activity in bovine bone assessed as bone resorption of osteoclast at 1 x 10^-8 mol/L after 8 days by toluidine blue staining-based method; format: functional, tissue-based; details: Bos taurus; Bone element

| Compound | Activity [1] | Activity [2] | growth at 10 µM [3] | Activity [4] | Activity [5] | Activity [6] | inhibition [7] | inhibition [8] | inhibition [9] | Activity [10] |
| --- | --- | --- | --- | --- | --- | --- | --- | --- | --- | --- |
| CC(C)(O)CCc1c(-c2ccccc2Cl)oc2c3c(cc(O)c2c1=O)OC(C)(C)C=C3 | 1.78% | 3.08% | 4.29% | 2.97% |  |  |  |  |  |  |
| CC(=O)CCc1c(-c2ccccc2Br)oc2c3c(cc(O)c2c1=O)OC(C)(C)C=C3 | 0.46% | 2.42% | 12.8% | 0.83% |  |  |  |  |  |  |
| CC(=O)CCc1c(-c2ccccc2Cl)oc2cc3c(c(O)c2c1=O)C=CC(C)(C)O3 | 9.58% | 0.85% | 7.62% | 9% |  |  |  |  |  |  |
| CC(O)CCc1c(-c2ccccc2Cl)oc2c3c(cc(O)c2c1=O)OC(C)(C)C=C3 (centres undefined) | 2.37% | 0.53% | 24% | 5.18% |  |  |  |  |  |  |
| CC(O)CCc1c(-c2ccccc2Cl)oc2cc3c(c(O)c2c1=O)C=CC(C)(C)O3 (centres undefined) | 7.45% | 11.08% | 27.1% | 5.63% | Active | Active |  |  |  |  |
| CC(=O)CCc1c(-c2ccccc2Cl)oc2c3c(cc(O)c2c1=O)OC(C)(C)C=C3 | 5.13% | 0.06% | 18.3% | 6.01% |  |  |  |  |  |  |
| CC(O)CCc1c(-c2ccccc2Br)oc2c3c(cc(O)c2c1=O)OC(C)(C)C=C3 (centres undefined) | 6.7% | 7.02% | 19.5% | 4.94% |  |  |  |  |  |  |
| CC1(C)C=Cc2c(cc(O)c3c(=O)c(CCC(C)(O)c4ccccc4)c(-c4ccccc4Br)oc23)O1 (centres undefined) | 14.74% | 8.56% | 21.7% | 16.65% | Active | Active |  |  |  |  |
| CC1(C)C=Cc2c(cc(O)c3c(=O)c(CCC(C)(O)c4ccc(F)cc4)c(-c4ccccc4Cl)oc23)O1 (centres undefined) | 6.89% | 6.02% | 15.9% | 6.35% |  |  |  |  |  |  |
| CC1(C)C=Cc2c(cc3oc(-c4ccccc4Cl)c(CCC(C)(O)c4ccc(F)cc4)c(=O)c3c2O)O1 (centres undefined) | 6.45% | 6.83% | 4.88% | 11.03% |  |  |  |  |  |  |
| CC(C)(O)CCc1c(-c2ccc(O)cc2O)oc2cc3c(c(O)c2c1=O)C=CC(C)(C)O3 | 5.88% | 2.26% | -4.81% | 6.69% |  | Active | inactive | Active | Active |  |
| CC(C)(O)CCc1c(-c2ccccc2Cl)oc2cc3c(c(O)c2c1=O)C=CC(C)(C)O3 | 3.74% | 6.39% | 14.3% | 4.61% |  |  |  |  |  |  |
| CC1(C)C=Cc2c(cc3oc(-c4ccccc4Br)c(CCC(C)(O)c4ccc(F)cc4)c(=O)c3c2O)O1 (centres undefined) | 6.25% | 1.91% | -4.88% | 1.49% |  |  |  |  |  |  |
| CC(C)=CCc1c(-c2ccc(O)cc2O)oc2c3c(cc(O)c2c1=O)OC(C)(C)C=C3 [MORUSIN] | 3.88% | 7.13% | 16% | 9.57% |  |  |  |  |  |  |
| CC(=O)CCc1c(-c2ccccc2Br)oc2cc3c(c(O)c2c1=O)C=CC(C)(C)O3 | 0.79% | 0.38% | 10.6% | 0.88% |  |  |  |  |  |  |
| CC(C)(O)CCc1c(-c2ccccc2Br)oc2cc3c(c(O)c2c1=O)C=CC(C)(C)O3 | 4.54% | 8.54% | 13.4% | 7.7% | Active | Active |  |  |  |  |
| CC(O)CCc1c(-c2ccccc2Br)oc2cc3c(c(O)c2c1=O)C=CC(C)(C)O3 (centres undefined) | 2.87% | -0.52% | 10.5% | 2.8% |  |  |  |  |  |  |
| CC1(C)C=Cc2c(cc(O)c3c(=O)c(CCC(C)(O)c4ccc(F)cc4)c(-c4ccccc4Br)oc23)O1 (centres undefined) | 6.42% | 4.55% | 17.2% | 7.88% | Active | Active |  |  |  |  |
| CC(C)Oc1ccc2c(=O)c(-c3ccccc3)coc2c1 [IPRIFLAVONE] |  | 4.09 - 17.3% |  |  |  |  |  |  |  | Active |
| CC(C)(O)CCc1c(-c2ccccc2Br)oc2c3c(cc(O)c2c1=O)OC(C)(C)C=C3 | 4.22% | 3.41% | 2.6% | 0.33% |  |  |  |  |  |  |
| CC1(C)C=Cc2c(cc3oc(-c4ccccc4Br)c(CCC(C)(O)c4ccccc4)c(=O)c3c2O)O1 (centres undefined) | 6.08% | 10.13% | 12.1% | 17.66% |  |  |  |  |  |  |
